The values below come from patent publication US6900238B1, “HIV protease inhibitors” (The Scripps Research Institute, priority 1995, dated 2005).

Data set [1] deals with T1, HIV-1 protease (Human immunodeficiency virus type 1 group M subtype B, UniProt P03369).
T1 construct: HIV PR is a 99 amino acid aspartyl protease which functions as a homodimer; made in house; host or cells: no host: total chemical synthesis
As to the kind of experiment: HIV protease inhibition, fluorogenic peptide substrate cleavage (IC50 and Ki). Format: biochemical. The settings on record: for pIC50: read-out: HIV PR IC50; for pKi: read-out: HIV PR Ki. As for the experimental part: The solution was mixed and incubated over 5 minutes during which time the rate of substrate cleavage was monitored by continuously recording the change in fluorescence of the assay solution. An excitation filter of 325 nm, and an emission filter of 420 nm were used.
Determination of Ki for HIV protease was performed similarly with the following modifications. The substrate concentrations used were 57, 43, 28 and 14 μM. All other concentrations were as above. The curve fit for the data was determined and the subsequent Ki derived using a computer program based on the equation of Morrison et. al. BioChim. Biophys. ACTA 1969, 185, 269, for tight binding inhibitors.
The synthetic HIV-protease containing a thioester linkage available from CalBiochem (San Diego) can also be used. The enzyme activity was assayed with the fluorogenic substrate Ac-Thr-Ile-Nle-Phe(P—NO2)-Gln-Arg-NH2 (from CalBiochem, San Diego) according to the procedure described in the literature. Inhibition analysis was performed in the presence of the inhibitor and expressed with IC50 (the concentration of inhibitor that causes 50% inhibition of the enzyme activity).

Data set [2] can be described thus: 13C NMR study of hydration of the ketone moiety in the presence of water. Format: physicochemical. As to conditions: deuterated DMSO/D2O (5:1), incubation for 24 hours. The source says:
The ketone moiety of the α-keto amide 2 is disclosed to be hydrated and is hydrogen bonding in a similar manner to that of compound 23.

For data set [3], the target named is T2, FIV protease (Feline immunodeficiency virus, UniProt P16088).
T2 construct: an 18.6 kDa precursor, which auto-processed to a 13.2 kDa FIV PR plus N- and C-terminal fragments; made in house; host or cells: E. coli BL21.DE3, lys S (pT7-7 vector)
The experiment in a line: FIV protease inhibition, peptide substrate cleavage by HPLC (IC50 and Ki). Format: biochemical. The procedure:
For determination of K1 and IC50 for FIV protease, 0.125 μg of the enzyme was added to a solution (100 μL final volume) containing inhibitor, 560 μM peptide substrate (sequence Gly-Lys-Glu-Glu-Gly-Pro-Pro-Gln-Ala-Tyr-Pro-Ile-Gln-Thr-Val-Asn-Gly) and 2% dimethyl sulfoxide in a 1:3 mixture of assay buffer (as above) and 4M NaClaq. solution. The solution was mixed and incubated for 10 minutes at 37° C. and the reaction quenched by addition of 8 M guanidine HCl solution containing 0.2 M sodium acetate at pH 4.2 (100 μL). The cleavage products and substrate were separated by reverse phase HPLC. Absorbance was measured at 215 nm, peak areas were determined and percent conversion to product was calculated using relative peak areas. The data were plotted as 1/V (V=rate substrate is cleaved in nmol/min) against inhibitor concentration and the—Ki determined as the point at which the resulting line intersects with 1/Vmax (Vmax=6.85 nmol/min). IC50 was determined as the inhibitor concentration at 50% inhibition. Vmax (6.85±0.7 nmol min^−1) and Km (707±70 μM) for FIV protease were determined from a plot of 1/V (V=rate in nmol/min) against 1/[S] ([S]=substrate concentration in […]). The data used was generated similarly to that for Ki with the following modifications. The substrate concentrations used were 560, 448, 336, 224, 111 and 56 μM, in the absence of inhibitor.
Purification of FIV protease: A 503 base pair Eco Rl-Bam Hl fragment containing the coding sequence of FIV protease was cloned from FIV-34TF10 (Talbott et. al. Proc. Natl. Acad. Sci. USA 86 1989, 5743) into the pT7-7 vector (Tabor et. al. Proc. Natl. Acad. Sci USA 82 1985, 1074). The 5′ end of the insert was modified by the addition of an Ndel adaptor, which provided the proper reading frame with initiation of translation from the methionine encoded in the latter site. […] The construct was transformed into E. coli strain BL21.DE3, lys S (Studier et. al. Meth. Enzymol. 1990, 185, 60) and overnight cultures were used to inoculate 15 liter fermentations, performed using Circlegrow medium (Bio 101) plus […] ampicillin, 20 μM chloramphenicol, at 37° C. The cells were allowed to reach mid-log phase, then the temperature was reduced to 24° C. and IPTG (isopropylB-thiogalactopyranoside) was added to a final concentration of 1 mM. The fermentation was allowed to proceed for 16 hours, at which time the cells were harvested by centrifugation and frozen at −70° C. in 100 g aliquots for future use.
Cells (100 g) were lysed by addition of 600 mL, 50 mM Tris-HCl, pH 8, 5 mM EDTA and 2 mM 2-mercaptoethanol to the frozen pellet. The cells lysed upon thawing and the viscous mixture was homogenized at 4° C. for 2 min in a Waring blender. The sample was centrifuged at 8,000×g for 20 min and the pellet discarded. […]

For data set [4], the target named is T1, HIV-1 protease. As to conditions: known HIV PR inhibitor; cited from earlier work.

As a reminder, the pIC50 is the IC50 on a negative log10 scale, so that one unit is a factor of ten. By pKi is commonly meant the Ki on a negative log10 scale, so that one unit is a factor of ten.

pIC50, pKi: −log10 of the molar value. Where two headings read alike, the source gives them in different places. Peptide text beside a SMILES is read from it. * marks the point of attachment. Cbz = O=C(OCc1ccccc1)*; NHtBu = CC(C)(C)N*

Take `CC(C)(C)NC(=O)[C@@H]1CCCN1C(=O)C(=O)C(Cc1ccccc1)NC(=O)OCc1ccccc1` (mixture of isomers) [Compound 2, (3S) and (3R) 3-(N-Benzyloxycarbonyl)amino-2-keto-4-phenylbutyryl-L-prolyl-tert-butyl Amide]: in data set [1], the “fold better than the corresponding hydroxyethylamine isosteric structure as inhibitor of the HIV protease” value is listed as “approximately 300 fold”, the “fold better than the corresponding phosphinic acid derivative as inhibitor of the HIV protease” value is recorded as around 1300 fold, the pIC50 is 6.15 and the pKi is 6.67. Besides, in data set [1] (time dependent assays), the “time dependent inhibition of HIV PR” value is listed as “do not exhibit time dependent inhibition”. Also, the “hydration of the ketone moiety in the presence of water” value in data set [2] was “remains unhydrated”. The “inhibitory effect against FIV PR” value in data set [3] (added in concentrations up to 70 mM) was “no inhibitory effect”. `CC[C@H](C)[C@H](NC(=O)[C@@H]1CCCN1C(=O)C(=O)C(Cc1ccccc1)NC(=O)OCc1ccccc1)C(=O)N[C@@H](CCC(N)=O)C(=O)OC(C)(C)C` (mixture of isomers) [Compound 4]: the negative logarithm of the Ki (pKi) is 6.81 in data set [1] and 4.54 in data set [3] (read-out: FIV PR Ki). The pIC50 in data set [3] (read-out: FIV PR IC50) is 4.60.

Take `COC[C@@H]1[C@@H](OC)[C@H](OC)[C@H](COC)N1C(=O)C(=O)C(Cc1ccccc1)NC(=O)OCc1ccccc1` (mixture of isomers) [Compound 12, (3S) and (3R) 3-(N-Benzyloxycarbonyl)amino-2-keto-4-phenylbutyryl-(2′(R), 5′(R)-bis(methoxymethyl]-3′(R), 4′(S)-dimethoxypyrrolidine]]: in data set [1], the pIC50 is 4.70 and the pKi was 4.70.

With `CC(C)(C)NC(=O)C1CCCN1C(=O)C(Cc1ccccc1)NC(=O)OCc1ccccc1` (stereo not drawn) [Cbz-Phe-Pro-NBu^t] (Cbz-Phe-Pro-NHtBu; configuration not given here), the “cleavage by HIV protease” value in data set [1] (normal assay conditions) is listed as “not cleaved”. The “cleavage by FIV protease” value in data set [3] (normal assay conditions) is reported as “not cleaved”. For `COC(=O)[C@@H]1CCCN1C(=O)C(=O)C(Cc1ccccc1)NC(=O)OC(C)(C)C` (stereo partly shown) [Compound 1], in data set [1], the pIC50 is 5.22 and the pKi was 5.22. As to `COCC1CCC(COC)N1CC(O)C(Cc1ccccc1)NC(=O)OCc1ccccc1` [Compound 5, N-[1-Phenyl-2(S)-[(benzyloxycarbonyl)amino]-3(R)-hydroxybutan-4-[2′ (R), 5′ (R)-bis(methoxymethyl)]-pyrrolidine], in data set [1], the pIC50 is 2.74. Same read-out and setting: the result for `COCC1C(OC)C(OC)C(COC)N1CC(O)C(Cc1ccccc1)NC(=O)OCc1ccccc1` [Compound 6, N-[1-Phenyl-2(S)-[(benzyloxycarbonyl)amino]-3(R)-hydroxybutan-4-[2′(R), 5′(R)-bis(methoxymethyl)-3′(R), 4′(S)-dimethoxy]-pyrrolidine] reads 4.00; that for `COC[C@H]1CCCN1C[C@@H](O)[C@H](Cc1ccccc1)NC(=O)OCc1ccccc1` [Compound 7], 2.80. Still for that read-out and setting: the result for `CC(C)(C)NC(=O)[C@@H]1CCCN1C[C@@H](O)[C@H](Cc1ccccc1)NC(=O)OCc1ccccc1` [Compound 8] reads 4.22. Still for that read-out and setting: the result for `CO[C@H]1CC(C(=O)NC(C)(C)C)N(C[C@@H](O)[C@H](Cc2ccccc2)NC(=O)OCc2ccccc2)C1` (stereo partly drawn) [Compound 9, N-(1-Phenyl-2(S)-[(benzyloxycarbonyl)amino]-3(R)-hydroxybutan-4-(tert-butylamido)-4′(S)-methoxy]-pyrrolidine] reads 4.77; that for `CO[C@@H]1C[C@@H](C(=O)NC(C)(C)C)N(C[C@@H](O)[C@H](Cc2ccccc2)NC(=O)OCc2ccccc2)C1` [Compound 10], 5.54. For the compound `CC(C)(C)NC(=O)[C@@H]1C[C@@H](OCc2ccccc2)CN1C[C@@H](O)[C@H](Cc1ccccc1)NC(=O)OCc1ccccc1` [Compound 11], the pIC50 in data set [1] was 5.41.

Consider `CC(C)(C)NC(=O)[C@@H]1CCCN1C(=O)[C@H](O)[C@H](Cc1ccccc1)NC(=O)OCc1ccccc1` [Compound 23, (2S, 3R) and (2S, 3S) 3-(N-Benzyloxycarbonyl)amino-2-hydroxy-4-phenylbutyryl-L-prolyl-tert-butyl Amide], for which the pIC50 in data set [1] was 3.52. As to `O=C1N(Cc2ccc(CO)cc2)[C@H](Cc2ccccc2)[C@H](O)[C@@H](O)[C@@H](Cc2ccccc2)N1Cc1ccc(CO)cc1` [DMP 323], in data set [4], the pIC50 was 7.44 and the pKi is 9.57. Turning to `CSC[C@H](NC(=O)COc1cccc2cnccc12)C(=O)N[C@@H](Cc1ccccc1)[C@H](O)C(=O)N1CSC[C@H]1C(=O)NC(C)(C)C` [KNI-272, reference compound], in data set [1] (compared with 2), the “Ki against HIV PR relative to compound 2” value was “almost five orders of magnitude lower”. Consider “(2S, 3R) and (2S, 3S) 3-(N-Benzyloxycarbonyl)amino-2-hydroxy-4-phenylbutyryl-L-prolyl-tert-butyl Amide [Compound 24]”, for which, in data set [1], the pIC50 was 5.70.
